Results as given in patent US8906952B2, “Indole derivative or pharmaceutically acceptable salt thereof, preparation method thereof, and pharmaceutical composition for preventing or treating metabolic diseases containing same as active ingredient” (Korea Research Institute of Bioscience and Biotechnology, priority 2011, dated 2014).
Where two headings read alike, the source gives them in different places.

Columns and labels:
Assay type in all cases: biochemical
[1] = target: T1, DGAT-1 (rat liver) (Rattus norvegicus, UniProt Q9ERM3); experiment: DGAT enzyme inhibition test, rat liver-derived DGAT enzyme; conditions: rat liver microsomal protein
T1 construct: microsomal protein isolated from rat; from tissue; host or cells: rat liver microsomes
T1 sequence (Q9ERM3 1-498): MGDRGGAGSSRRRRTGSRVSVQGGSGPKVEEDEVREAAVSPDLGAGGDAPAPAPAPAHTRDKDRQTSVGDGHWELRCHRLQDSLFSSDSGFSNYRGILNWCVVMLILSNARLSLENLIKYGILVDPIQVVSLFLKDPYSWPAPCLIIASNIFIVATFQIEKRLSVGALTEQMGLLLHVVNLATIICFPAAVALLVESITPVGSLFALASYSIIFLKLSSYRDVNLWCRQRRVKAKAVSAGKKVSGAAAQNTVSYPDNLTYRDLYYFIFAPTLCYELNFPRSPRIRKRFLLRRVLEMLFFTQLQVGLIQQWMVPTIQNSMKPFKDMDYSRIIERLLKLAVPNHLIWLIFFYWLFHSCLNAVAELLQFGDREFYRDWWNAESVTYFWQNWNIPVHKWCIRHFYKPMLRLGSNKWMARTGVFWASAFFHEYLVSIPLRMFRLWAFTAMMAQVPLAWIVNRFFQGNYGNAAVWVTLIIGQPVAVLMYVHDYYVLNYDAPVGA
Text: (§1) To investigate inhibitory effect of the compounds of Examples 1-33 against DGAT enzyme activity, DGAT enzyme inhibition and DGAT2 selectivity were investigated using zymogen including:
3) rat liver-derived DGAT enzyme.
(§2) To be specific, for the purpose of measuring human-derived DGAT enzyme inhibitory activity, using the zymogen, including enzymes derived from insect cell overexpressing human DGAT1 and DGAT2 (‘sf9’), microsomal protein isolated from human duodenal adenocarcinoma (‘Hutu 80’), and microsomal protein isolated from rat, and according to Coleman et al., (Methods Enzymol., 98-103, 1992), and substrate including 1,2-diacylglycerol(Sigma, D0138) and [^14C]palmitoyl-CoA (Amersham, CFA583), the amount of radiation of [^14C]triacylglycerol produced after enzymatic reaction was measured.
(§3) To be more specific, to the reaction solution containing 175 mM Tris-HCl (pH 8.0), 20 μl bovine serum albumin (10 mg/ml), 100 mM magnesium chloride, 30 μM [^14C]palmitoyl CoA (0.02 μCi, Amersham) and 200 μM 1,2-dioleoylglycerol, reagent dissolved in dimethylsulfoxide (10.0 μl) was added. After introducing 100 to 200 μg isolated microsomal protein and allowing the same to react at 25° C. for 10 min, the reaction was stopped by adding 1.5 ml stop solution (2-propanol:heptane:water=80:20:2, v:v:v). To isolate the product of the reaction (i.e., [^14C]triacylglycerol), 1 ml heptane and 0.5 ml distilled water were added and then decocted. After taking 1 ml supernatant, 2 ml alkaline ethanol solution (ethanol:0.5 N sodium hydroxide:water=50:10:40, v:v:v) were added and then decocted. After taking 0.65 ml supernatant from the decoction, the amount of radiation was measured with liquid scintillation counter (LSC). The DGAT inhibitory activity was calculated with Mathematical Expression 1 below:
(§4) T denotes cpm of experimental group in which the enzymatic reaction solution was treated with the sample,
(§5) C denotes cpm of control group in which the enzymatic reaction solution was not treated with the sample, and
(§6) B denotes cpm of control group treated with the sample without zymogen.

[2] = target: T2, human DGAT2 (Homo sapiens, UniProt Q96PD7); experiment: DGAT enzyme inhibition test, hDGAT2 enzyme from sf9 insect cells (DGAT2 selectivity)
T2 construct: made in house; host or cells: sf9 insect cells
T2 sequence (Q96PD7 1-388): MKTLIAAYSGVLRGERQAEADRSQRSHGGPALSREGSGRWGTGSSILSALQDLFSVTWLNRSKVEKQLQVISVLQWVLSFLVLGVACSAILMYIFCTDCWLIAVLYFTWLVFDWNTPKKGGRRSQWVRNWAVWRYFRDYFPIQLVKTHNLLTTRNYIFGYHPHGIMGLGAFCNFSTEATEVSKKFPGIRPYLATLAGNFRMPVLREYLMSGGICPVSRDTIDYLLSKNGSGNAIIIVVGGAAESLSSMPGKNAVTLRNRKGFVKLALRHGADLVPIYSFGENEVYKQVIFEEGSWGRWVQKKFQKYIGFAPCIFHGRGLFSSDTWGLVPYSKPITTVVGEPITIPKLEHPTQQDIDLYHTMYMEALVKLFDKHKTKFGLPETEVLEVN
Text: as §1
(§7) 1) hDGAT1 and hDGAT2 enzymes, derived from insect cell overexpressing human DGAT1 and DGAT2 (‘sf9’), respectively,
as §2, §3, §4, §5, §6

[3] = target: T3, hDGAT-1 (HuTu 80) (Homo sapiens, UniProt O75907); experiment: DGAT enzyme inhibition test, microsomal protein from human duodenal adenocarcinoma (Hutu 80); conditions: microsomal protein from HuTu 80
T3 construct: microsomal protein isolated from human duodenal adenocarcinoma (‘Hutu 80’); endogenous in cells; host or cells: HuTu 80 human duodenal adenocarcinoma cells (microsomes)
T3 sequence (O75907 1-488): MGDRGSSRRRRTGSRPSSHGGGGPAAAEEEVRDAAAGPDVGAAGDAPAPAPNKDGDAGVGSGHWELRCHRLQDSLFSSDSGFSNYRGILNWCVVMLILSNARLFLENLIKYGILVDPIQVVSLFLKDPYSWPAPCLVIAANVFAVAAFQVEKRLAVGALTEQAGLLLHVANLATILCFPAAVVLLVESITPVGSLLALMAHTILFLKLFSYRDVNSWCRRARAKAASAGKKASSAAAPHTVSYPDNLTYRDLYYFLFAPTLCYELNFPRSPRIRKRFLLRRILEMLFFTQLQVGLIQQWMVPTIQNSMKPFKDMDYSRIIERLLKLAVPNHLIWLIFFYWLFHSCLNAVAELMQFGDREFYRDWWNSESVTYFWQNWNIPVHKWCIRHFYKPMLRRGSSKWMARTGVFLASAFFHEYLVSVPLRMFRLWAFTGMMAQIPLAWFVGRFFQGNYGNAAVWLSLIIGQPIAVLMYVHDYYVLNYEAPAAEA
Text: as §1
2) DGAT enzyme derived from human duodenal adenocarcinoma (‘Hutu 80’), and
as §2, §3, §4, §5, §6

[4] = target: T4, human DGAT1 (Homo sapiens, UniProt O75907); experiment: DGAT enzyme inhibition test, hDGAT1 enzyme from sf9 insect cells; conditions: enzyme from sf9 cells overexpressing hDGAT1; read-out: hDGAT-1 (sf9) IC50
T4 construct: made in house; host or cells: sf9 insect cells
T4 sequence (O75907 1-488): T3 sequence (O75907 1-488)
Text: as §1, §7, §2, §3, §4, §5, §6

[5] = 10 μM, enzyme from sf9 cells overexpressing hDGAT2, read-out: hDGAT-2 (sf9) inhibition rate(%)at 10 μM
[6] = concentration of 10 μM, read-out: hDGAT2 inhibition

| SMILES | IC50 [1] [µM] | inhibition at 10 µM [2, 5] [%] | inhibition at 10 µM [2, 6] [%] | IC50 [3] [µM] | IC50 [4] [µM] |
| --- | --- | --- | --- | --- | --- |
| CC(C)N(NC(=O)c1ccc(Br)cc1)C(=O)/C=C/c1cn(C(=O)OC(C)(C)C)c2ccccc12 [Example 13, (E)-tert-butyl 3-(3-(2-(4-bromobenzoyl)-1-isopropylhydrazinyl)-3-oxoprop-1-enyl)-1H-indole-1-carboxylate] | 9.1 | 2.3 | < 11 | 8.1 | 20.4 |
| CC(C)N(NC(=O)c1ccc(Cl)cc1)C(=O)/C=C/c1cn(C(=O)OC(C)(C)C)c2ccccc12 [Example 14, (E)-tert-butyl 3-(3-(2-(4-chlorobenzoyl)-1-isopropylhydrazinyl)-3-oxoprop-1-enyl)-1H-indole-1-carboxylate] | 2.8 | < 0 | < 11 | 2.7 | 8.8 |
| CC(C)N(NC(=O)c1cccc(OCC(=O)O)c1)C(=O)/C=C/c1cn(C(=O)OC(C)(C)C)c2ccccc12 [Example 19, (E)-2-(3-(2-(3-(1-(tert-butoxycarbonyl)-1H-indol-3-yl)acryloyl)-2-isopropylhydrazinecarbonyl)phenoxy)acetic acid] | 45.5 | < 0 |  | > 100 | > 100 |
| CC(C)N(NC(=O)c1cccc(OCC(N)=O)c1)C(=O)/C=C/c1cn(C(=O)OC(C)(C)C)c2ccccc12 [Example 20, (E)-tert-butyl 3-(3-(2-(3-(2-amino-2-oxoethoxy)benzoyl)-1-isopropylhydrazinyl)-3-oxoprop-1-enyl)-1H-indole-1-carboxylate] | > 100 | < 0 |  | 73.3 | > 100 |
| CC(C)N(NC(=O)c1ccccc1)C(=O)/C=C/c1c[nH]c2ccccc12 [Example 22, (E)-N′-(3-(1H-indol-3-yl)acryloyl)-N′-isopropylbenzohydrazide] | 33 | < 0 |  | 44.6 | > 100 |
| CC(C)N(NC(=O)c1ccccc1)C(=O)CCc1c[nH]c2ccccc12 [Example 23, N′-(3-(1H-indol-3-yl)propanoyl)-N′-isopropylbenzohydrazide] | 31.4 | < 0 |  | 25.8 | 95.1 |
| CC(C)N(NC(=O)c1ccccc1)C(=O)/C=C/c1cn(C)c2ccccc12 [Example 25] | 9.3 | < 0 |  | 29.2 | 28.3 |
| CC(C)N(NC(=O)c1ccccc1)C(=O)/C=C/c1cn(C2CC2)c2ccccc12 [Example 29, (E)-N′-(3-(1-cyclopropyl-1H-indol-3-yl)acryloyl)-N′-isopropylbenzohydrazide] | 1.9 | < 0 | < 11 | 4.6 | 24.6 |

Results, then the compound that gave them:

| IC50 [1] [µM] | inhibition at 10 µM [2, 5] [%] | inhibition at 10 µM [2, 6] [%] | IC50 [3] [µM] | IC50 [4] [µM] | SMILES |
| --- | --- | --- | --- | --- | --- |
| 0.4 | < 0 | < 11 | 1.1 | 20.4 | CC(C)N(NC(=O)c1cccc(F)c1)C(=O)/C=C/c1cn(C(=O)OC(C)(C)C)c2ccccc12 [Example 15, (E)-tert-butyl 3-(3-(2-(3-fluorobenzoyl)-1-isopropylhydrazinyl)-3-oxoprop-1-enyl)-1H-indole-1-carboxylate] |
| 26.3 | 3.7 |  | 10.7 | > 100 | CC(C)(C)OC(=O)n1cc(/C=C/C(=O)NNC(=O)c2ccccc2)c2ccccc21 [Example 16, (E)-tert-butyl 3-(3-(2-benzoylhydrazinyl)-3-oxoprop-1-enyl)-1H-indole-1-carboxylate] |
| 83.6 | < 0 |  | > 100 | > 100 | CC(C)(C)OC(=O)n1cc(/C=C/C(=O)NNS(=O)(=O)c2ccccc2)c2ccccc21 [Example 17, (E)-tert-butyl 3-(3-oxo-3-(2-(phenylsulfonyl)hydrazinyl)prop-1-enyl)-1H-indole-1-carboxylate] |
| 20.3 | < 0 |  | 3.2 | > 100 | COC(=O)COc1cccc(C(=O)NN(C(=O)/C=C/c2cn(C(=O)OC(C)(C)C)c3ccccc23)C(C)C)c1 [Example 18, (E)-tert-butyl 3-(3-(1-isopropyl-2-(3-(2-methoxy-2-oxoethoxy)benzoyl)hydrazinyl)-3-oxoprop-1-enyl)-1H-indole-1-carboxylate] |
| 29.1 | 1.3 |  | 29.6 | > 100 | CC(C)N(NC(=O)c1ccccc1)C(=O)CCc1cn(Cc2ccccc2)c2ccccc12 [Example 21, N′-(3-(1-benzyl-1H-indol-3-yl)propanoyl)-N′-isopropylbenzohydrazide] |
| 8.6 | < 0 |  | 9.2 | > 100 | CC(C)N(NC(=O)c1ccccc1)C(=O)CCc1cn(C(=O)OC(C)(C)C)c2ccccc12 [Example 24, tert-butyl 3-(3-(2-benzoyl-1-isopropylhydrazinyl)-3-oxopropyl)-1H-indole-1-carboxylate] |
| 2.4 | 5 | < 11 | 2.9 | 13.6 | CC(C)N(NC(=O)c1ccccc1)C(=O)/C=C/c1cn(Cc2ccccc2)c2ccccc12 [Example 26, (E)-N′-(3-(1-benzyl-1H-indol-3-yl)acryloyl)-N′-isopropylbenzohydrazide] |
| 0.5 | 1.2 | < 11 | 2.6 | 11.8 | CC(C)=CCn1cc(/C=C/C(=O)N(NC(=O)c2ccccc2)C(C)C)c2ccccc21 [Example 27, (E)-N′-isopropyl-N′-(3-(1-(3-methylbut-2-enyl)-1H-indol-3-yl)acryloyl)benzohydrazide] |
| 2.9 | < 0 | < 11 | 8.1 | 41.6 | CC(C)N(NC(=O)c1ccccc1)C(=O)/C=C/c1cn(CC2CC2)c2ccccc12 [Example 28, (E)-N′-(3-(1-(cyclopropylmethyl)-1H-indol-3-yl)acryloyl)-N′-isopropylbenzohydrazide] |
